Measurements as given in US10329302B2, “Bicyclic-fused heteroaryl or aryl compounds” (Pfizer Inc., priority 2014, dated 2019).
Like-named read-outs stand apart in the source and are kept apart here.

Experiments:
[1] = molecular target: human IRAK4 FL (Full Length) (Homo sapiens (Human), UniProt Q9NWZ3); assay: IRAK4 Enzymatic DELFIA Assay, Protocol A; type: biochemical; details: human IRAK4 FL, 0.6 mM ATP (KM); read-out: IRAK4 DELFIA Protocol A IC50
[2] = system: R848-induced TNFα production by human peripheral blood mononuclear cells (PBMCs); assay: R848 Induced TNFα in Human PBMC Assay; type: cell-based
[3] = Homo sapiens, PBMC, 3 h, read-out: R848-induced TNFa PBMC IC50 (nM)

human IRAK4 FL (Full Length), sequence (Q9NWZ3 whole entry): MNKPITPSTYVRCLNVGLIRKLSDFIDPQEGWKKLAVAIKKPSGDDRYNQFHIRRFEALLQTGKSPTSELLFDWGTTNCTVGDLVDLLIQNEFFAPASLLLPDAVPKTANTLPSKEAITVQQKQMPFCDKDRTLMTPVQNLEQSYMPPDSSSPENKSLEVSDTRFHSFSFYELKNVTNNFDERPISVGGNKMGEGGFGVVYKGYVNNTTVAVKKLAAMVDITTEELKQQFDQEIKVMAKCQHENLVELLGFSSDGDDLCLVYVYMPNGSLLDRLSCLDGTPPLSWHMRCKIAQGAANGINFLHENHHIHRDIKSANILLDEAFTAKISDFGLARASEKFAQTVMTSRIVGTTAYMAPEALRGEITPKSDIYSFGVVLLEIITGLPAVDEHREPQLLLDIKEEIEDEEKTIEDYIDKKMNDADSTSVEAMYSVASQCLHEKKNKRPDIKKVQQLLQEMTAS

| SMILES | IC50 [1] [nM] | IC50 [2, 3] [nM] | IC50 ([2]; human PBMC, absence of serum, 3 hours, read-out: R848-induced TNFa PBMC IC50) [nM] |
| --- | --- | --- | --- |
| COc1cc2c(OC[C@@H]3C[C@](C)(F)C(=O)N3)ccnc2cc1C(N)=O [Example 268, 4-{[(2S,4S)-4-fluoro-4-methyl-5-oxopyrrolidin-2-yl]methoxy}-6-methoxyquinoline-7-carboxamide] | 1.4 | 175 |  |
| COc1cc2c(OC[C@H]3NC(=O)[C@@H](OC)[C@H]3C)nccc2cc1C(N)=O [Example 349, 7-methoxy-1-{[(2S,3S,4S)-4-methoxy-3-methyl-5-oxopyrrolidin-2-yl]methoxy}isoquinoline-6-carboxamide] | 2960 | 9460 |  |
| COc1cc2c(OC[C@H]3NC(=O)[C@@H]4C[C@H]34)ccnc2cc1C(N)=O [Example 326, 6-methoxy-4-{[(1S,2S,5R)-4-oxo-3-azabicyclo[3.1.0]hex-2-yl]methoxy}quinoline-7-carboxamide] | 1.2 | 1200 |  |
| COc1cc2c(OC[C@H]3NC(=O)[C@@H](F)[C@H]3C)ccnc2cc1C(N)=O [Example 250, 4-{[(2S,3S,4S)-4-fluoro-3-methyl-5-oxopyrrolidin-2-yl]methoxy}-6-methoxyquinoline-7-carboxamide] | 0.6 | 144 |  |
| COc1cc2c(OC[C@H]3NC(=O)[C@@](C)(F)[C@H]3C)nccc2cc1C(N)=O [Example 238, 1-{[(2S,3S,4S)-4-fluoro-3,4-dimethyl-5-oxopyrrolidin-2-yl]methoxy}-7-methoxyisoquinoline-6-carboxamide] | 3.7 | 45 |  |
| COC[C@H]1[C@@H](COc2nccc3cc(C(N)=O)c(OC)cc23)NC(=O)[C@@H]1F [Example 351, 1-{[(2S,3R,4R)-4-fluoro-3-(methoxymethyl)-5-oxopyrrolidin-2-yl]methoxy}-7-methoxyisoquinoline-6-carboxamide] | 6.3 | 213 |  |
| COc1cc2c(OC[C@@H]3C[C@@H](CC(F)(F)F)C(=O)N3)nccc2cc1C(N)=O [Example 267, 7-methoxy-1-{[(2S,4S)-5-oxo-4-(2,2,2-trifluoroethyl)pyrrolidin-2-yl]methoxy}isoquinoline-6-carboxamide] | 15 | 158 |  |
| COc1cc2c(OC[C@H]3NC(=O)[C@H](OC)[C@H]3C)nccc2cc1C(N)=O [Example 350, 7-methoxy-1-{[(2S,3S,4R)-4-methoxy-3-methyl-5-oxopyrrolidin-2-yl]methoxy}isoquinoline-6-carboxamide] | 58 | 568 |  |
| CC(C)Oc1cc2c(OC[C@H]3NC(=O)C[C@H]3C)nccc2cc1C(N)=O [Example 219, 1-{[(2S,3R)-3-methyl-5-oxopyrrolidin-2-yl]methoxy}-7-(propan-2-yloxy)isoquinoline-6-carboxamide] | 1.7 | 65 |  |
| CC(C)Oc1cc2c(OC[C@@H]3CC(C4(O)CCOCC4)C(=O)N3)nccc2cc1C(N)=O (stereo partly drawn) [Example 181, 1-{[(2S)-4-(4-hydroxytetrahydro-2H-pyran-4-yl)-5-oxopyrrolidin-2-yl]methoxy}-7-(propan-2-yloxy)isoquinoline-6-carboxamide] | 5.7 | 503 |  |
| CC[C@@H]1[C@H](F)C(=O)N[C@@H]1COc1nccc2cc(C(N)=O)c(OCCOC)cc12 [Example 339, 1-{[(2S,3S,4S)-3-ethyl-4-fluoro-5-oxopyrrolidin-2-yl]methoxy}-7-(2-methoxyethoxy)isoquinoline-6-carboxamide] | 90 | 269 |  |
| CC(C)Oc1cc2c(OC[C@@H]3CC(F)C(=O)N3)nccc2cc1C(N)=O (stereo partly drawn) [Example 112, 1-{[(2S)-4-fluoro-5-oxopyrrolidin-2-yl]methoxy}-7-(propan-2-yloxy)isoquinoline-6-carboxamide] | 1 | 50 |  |
| CCOc1cc2c(OC[C@@H]3C[C@](C)(F)C(=O)N3)nccc2cc1C(N)=O [Example 278, 7-ethoxy-1-{[(2S,4S)-4-fluoro-4-methyl-5-oxopyrrolidin-2-yl]methoxy}isoquinoline-6-carboxamide] | 8.5 | 299 |  |
| CC(C)Oc1cc2c(OC[C@@H]3C[C@@H](C)C(=O)N3)nccc2cc1C(N)=O [Example 124, 1-{[(2S,4R)-4-methyl-5-oxopyrrolidin-2-yl]methoxy}-7-(propan-2-yloxy)isoquinoline-6-carboxamide] | 7.8 | 175 |  |
| COc1cc2c(OC[C@H]3NC(=O)[C@@H]4[C@@H](CO)[C@@H]43)nccc2cc1C(N)=O [Example 327, 1-{[(1S,2S,5S)-6-(hydroxymethyl)-4-oxo-3-azabicyclo[3.1.0]hex-2-yl]methoxy}-7-methoxyisoquinoline-6-carboxamide] | 20 | 3310 |  |
| C[C@@H]1[C@H](F)C(=O)N[C@@H]1COc1nccc2cc(C(N)=O)c(OC3CC3)cc12 [Example 281, 7-(cyclopropyloxy)-1-{[(2S,3S,4S)-4-fluoro-3-methyl-5-oxopyrrolidin-2-yl]methoxy}isoquinoline-6-carboxamide] | 11 |  | 127 |

| SMILES | IC50 [1] [nM] | IC50 [2, 3] [nM] | IC50 ([2]; human PBMC, absence of serum, 3 hours, read-out: R848-induced TNFa PBMC IC50) [nM] |
| --- | --- | --- | --- |
| COc1cc2c(OC[C@@H]3COC(=O)N3)nccc2cc1C(N)=O [Example 230, 7-methoxy-1-{[(4R)-2-oxo-1,3-oxazolidin-4-yl]methoxy}isoquinoline-6-carboxamide] | 7 | 199 |  |
| COc1cc2c(OC[C@@H]3C[C@@H](C)C(=O)N3)nccc2cc1C(N)=O [Example 243, 7-methoxy-1-{[(2S,4R)-4-methyl-5-oxopyrrolidin-2-yl]methoxy}isoquinoline-6-carboxamide] | 205 | 713 |  |
| CC[C@H]1[C@@H](COc2nccc3cc(C(N)=O)c(OC)cc23)NC(=O)C1(F)F [Example 345, 1-{[(2S,3S)-3-ethyl-4,4-difluoro-5-oxopyrrolidin-2-yl]methoxy}-7-methoxyisoquinoline-6-carboxamide] | 0.2 | 1.6 |  |
| COc1cc2c(OC[C@H]3NC(=O)[C@@H]4[C@@H](C)[C@@H]43)ncc(F)c2cc1C(N)=O [Example 364, 4-fluoro-7-methoxy-1-{[(1S,2S,5R)-6-methyl-4-oxo-3-azabicyclo[3.1.0]hex-2-yl]methoxy}isoquinoline-6-carboxamide] | 16 | 145 |  |
| COc1cc2c(OC[C@H]3NC(=O)[C@@H](F)[C@H]3C)cccc2cc1C(N)=O [Example 218, 5-{[(2S,3S,4S)-4-fluoro-3-methyl-5-oxopyrrolidin-2-yl]methoxy}-3-methoxynaphthalene-2-carboxamide] | 0.3 | 11 |  |
| COc1cc2c(OC[C@H]3NC(=O)[C@@H]4[C@@H](C(F)F)[C@@H]43)nccc2cc1C(N)=O [Example 320, 1-{[(1R,2S,5S)-6-(difluoromethyl)-4-oxo-3-azabicyclo[3.1.0]hex-2-yl]methoxy}-7-methoxyisoquinoline-6-carboxamide] | 0.8 | 11 |  |
| COc1cc2c(OCC3(C)COC(=O)N3)nccc2cc1C(N)=O (stereo not shown) [Example 266, 7-methoxy-1-[(4-methyl-2-oxo-1,3-oxazolidin-4-yl)methoxy]isoquinoline-6-carboxamide] | 74 | 394 |  |
| CC[C@@H]1[C@H](F)C(=O)N[C@@H]1COc1ncnc2cc(C(N)=O)c(OC)cc12 [Example 341, 4-{[(2S,3S,4S)-3-ethyl-4-fluoro-5-oxopyrrolidin-2-yl]methoxy}-6-methoxyquinazoline-7-carboxamide] | 0.3 | 16 |  |
| C=C[C@H]1CC(=O)N[C@@H]1COc1nccc2cc(C(N)=O)c(OC)cc12 [Example 329, 1-{[(2S,3R)-3-ethenyl-5-oxopyrrolidin-2-yl]methoxy}-7-methoxyisoquinoline-6-carboxamide] | 13 | 252 |  |
| CC[C@H]1[C@@H](COc2nccc3cc(C(N)=O)c(OC)cc23)NC(=O)[C@@H]1N [Example 357, 1-{[(2S,3R,4R)-4-amino-3-ethyl-5-oxopyrrolidin-2-yl]methoxy}-7-methoxyisoquinoline-6-carboxamide] | 30 | 588 |  |
| CC(C)Oc1cc2c(OC[C@@H]3C[C@](F)(CO)C(=O)N3)nccc2cc1C(N)=O [Example 163, 1-{[(2S,4S)-4-fluoro-4-(hydroxymethyl)-5-oxopyrrolidin-2-yl]methoxy}-7-(propan-2-yloxy)isoquinoline-6-carboxamide] | 1400 | 7450 |  |
| CC[C@H]1[C@@H](COc2nccc3cc(C(N)=O)c(OC(C)C)cc23)NC(=O)C1(F)F [Example 201, 1-{[(2S,3S)-3-ethyl-4,4-difluoro-5-oxopyrrolidin-2-yl]methoxy}-7-(propan-2-yloxy)isoquinoline-6-carboxamide] | 0.4 | 1 |  |
| COC[C@@H]1[C@H](F)C(=O)N[C@@H]1COc1nccc2cc(C(N)=O)c(OC)cc12 [Example 348, 1-{[(2S,3R,4S)-4-fluoro-3-(methoxymethyl)-5-oxopyrrolidin-2-yl]methoxy}-7-methoxyisoquinoline-6-carboxamide] | 0.7 | 42 |  |
| CC[C@@H]1[C@H](F)C(=O)N[C@@H]1COc1ccnc2cc(C(N)=O)c(OC)cc12 [Example 316, 4-{[(2S,3S,4S)-3-ethyl-4-fluoro-5-oxopyrrolidin-2-yl]methoxy}-6-methoxyquinoline-7-carboxamide] | 129 | 464 |  |
| CC(C)Oc1cc2c(OC[C@@H]3C[C@H](CC(F)(F)F)C(=O)N3)nccc2cc1C(N)=O [Example 152, 1-{[(2S,4R)-5-oxo-4-(2,2,2-trifluoroethyl)pyrrolidin-2-yl]methoxy}-7-(propan-2-yloxy)isoquinoline-6-carboxamide] | 6.7 | 139 |  |
| COc1cc2c(OC[C@@H]3CC(Cc4ccccc4)C(=O)N3)nccc2cc1C(N)=O (stereo partly drawn) [Example 258, 1-{[(2S)-4-benzyl-5-oxopyrrolidin-2-yl]methoxy}-7-methoxyisoquinoline-6-carboxamide] | 141 | 2930 |  |
